According to ChEMBL document CHEMBL1136535, “Unexpected inhibition of S-adenosyl-L-homocysteine hydrolase by a guanosine nucleoside” (Bioorg Med Chem Lett, 2003):

What was measured:
Adenosylhomocysteinase [1] = molecular target: T1, Adenosylhomocysteinase (Homo sapiens, UniProt P23526); assay: Inhibitory activity against S-adenosyl-L-homocysteine hydrolase was determined
Adenosylhomocysteinase [2] = molecular target: T1, Adenosylhomocysteinase; assay: Inhibitory activity against S-adenosyl-L-homocysteine hydrolase was determined in hydrolysis direction
Adenosylhomocysteinase [3] = molecular target: T1, Adenosylhomocysteinase; assay: Inhibitory activity against S-adenosyl-L-homocysteine hydrolase was determined in synthetic directions

T1 sequence (P23526 whole entry): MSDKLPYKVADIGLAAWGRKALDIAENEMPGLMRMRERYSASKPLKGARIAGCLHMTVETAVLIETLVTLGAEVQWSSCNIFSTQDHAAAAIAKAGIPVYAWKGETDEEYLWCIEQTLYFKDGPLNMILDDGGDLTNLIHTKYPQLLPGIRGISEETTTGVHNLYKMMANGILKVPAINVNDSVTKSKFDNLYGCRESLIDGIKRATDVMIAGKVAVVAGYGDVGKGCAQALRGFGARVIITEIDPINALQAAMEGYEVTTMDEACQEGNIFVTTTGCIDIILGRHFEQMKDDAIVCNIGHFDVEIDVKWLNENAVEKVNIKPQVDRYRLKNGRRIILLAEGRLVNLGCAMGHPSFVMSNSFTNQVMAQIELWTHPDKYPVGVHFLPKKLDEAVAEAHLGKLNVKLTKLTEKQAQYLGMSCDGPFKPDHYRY

| Ki (Adenosylhomocysteinase [1]) [µM] | Ki (Adenosylhomocysteinase [2]) [µM] | Ki (Adenosylhomocysteinase [3]) [µM] | Compound |
| --- | --- | --- | --- |
| 422 | – | – | OC[C@H]1OC(n2cncc2-c2cc(O)ncn2)[C@H](O)[C@@H]1O (stereo not given in full) |
| – | 128 | 217 | Nc1nc(O)cc(-c2cncn2C2O[C@H](CO)[C@@H](O)[C@H]2O)n1 (stereo not given in full) |
| 1470 | – | – | Nc1nc2c(ncn2[C@@H]2O[C@H](CO)[C@@H](O)[C@H]2O)c(=O)[nH]1 [GUANOSINE] |
| 925 | – | – | OC[C@H]1O[C@@H](n2cnc3c(O)ncnc32)[C@H](O)[C@@H]1O [INOSINE] |
